The record followed here is patent publication US12662489B2 (Sitryx Therapeutics Limited, priority 2023, dated 2026).

Test [1] has as its target T1, MTHFD2 recombinant human enzyme (Homo sapiens, UniProt P13995).
T1 sequence (P13995 36-350): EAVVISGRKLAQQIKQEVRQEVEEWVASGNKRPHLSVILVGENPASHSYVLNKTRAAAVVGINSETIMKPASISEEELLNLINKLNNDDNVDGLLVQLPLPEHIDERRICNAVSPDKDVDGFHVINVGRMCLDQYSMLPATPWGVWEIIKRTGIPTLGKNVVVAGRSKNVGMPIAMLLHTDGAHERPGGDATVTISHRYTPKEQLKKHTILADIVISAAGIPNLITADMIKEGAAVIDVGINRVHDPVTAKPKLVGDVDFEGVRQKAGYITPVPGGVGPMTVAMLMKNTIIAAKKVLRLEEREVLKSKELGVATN
Nature of the test: MTHFD2 inhibition assay (NAD(P)H-Glo luminescence). Conditions: for MTHFD1/MTHFD2 IC50 ratio: selectivity of MTHFD2 inhibition over MTHFD1, band.

Test [2] has as its target T2, MTHFD1 recombinant human enzyme (Homo sapiens, UniProt P11586).
T2 sequence (P11586 2-291 limits assumed): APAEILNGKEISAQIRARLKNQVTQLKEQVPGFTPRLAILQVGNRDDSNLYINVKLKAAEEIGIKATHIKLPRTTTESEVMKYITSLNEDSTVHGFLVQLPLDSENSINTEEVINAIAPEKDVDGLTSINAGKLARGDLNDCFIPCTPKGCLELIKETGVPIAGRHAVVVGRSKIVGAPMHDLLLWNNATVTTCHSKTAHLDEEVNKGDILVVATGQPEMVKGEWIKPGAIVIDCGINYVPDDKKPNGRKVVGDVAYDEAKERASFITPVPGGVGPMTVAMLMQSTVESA
The experiment in a line: MTHFD1 inhibition assay (NAD(P)H-Glo luminescence). The conditions noted are these: MTHFD1 IC50, recombinant human enzyme 200 nM, NADP, band.

Turning to `COC[C@H]1CN(c2cc(C)c3c4c(c(=O)oc3c2C)CN(C(=O)c2ccc(C(=O)NS(=O)(=O)C3(C)CC3)c(N3CCCC(F)(F)C3)c2)CC4)CCN1C` [Example 75, (R)-2-(3,3-difluoropiperidin-1-yl)-4-(8-(3-(methoxymethyl)-4-methylpiperazin-1-yl)-7,10-dimethyl-5-oxo-1,3,4,5-tetrahydro-2H-chromeno[3,4-c]pyridine-3-carbonyl)-N-((1-methylcyclopropyl)sulfonyl)benzamide], in test [1], the half-inhibitory concentration (IC50) lay within 1 to 10 nM and the “MTHFD1/MTHFD2 IC50 ratio” value is “G (^ 3 to 9.0)”. For the same compound, the half-maximal inhibitory concentration (IC50) in test [2] was in the range of 1 to 10 nM.

Turning to `COC[C@H]1CN(c2ccc3c4c(c(=O)oc3c2Cl)CN(C(=O)c2ccc(C(=O)NS(=O)(=O)N(C)C(C)C)c(O[C@@H]3C[C@@H]5C[C@@H]5C3)c2F)CC4)CCN1C` [Example 65, 2-(((1R,3r,5S)-bicyclo[3.1.0]hexan-3-yl)oxy)-4-(7-chloro-8-((R)-3-(methoxymethyl)-4-methylpiperazin-1-yl)-5-oxo-1,3,4,5-tetrahydro-2H-chromeno[3,4-c]pyridine-3-carbonyl)-3-fluoro-N-(N-isopropyl-N-methylsulfamoyl)benzamide], in test [1], the IC50 lay in the range of 10 to 100 nM and the “MTHFD1/MTHFD2 IC50 ratio” value is recorded as “F (<3)”. For the same compound, in test [2], the half-maximal inhibitory concentration (IC50) fell in the range of 1 to 10 nM.

Consider `COC[C@H]1CN(c2cc(C)c3c4c(c(=O)oc3c2C)CN(C(=O)c2ccc(C(=O)NS(=O)(=O)N3CCCC3)c(N3CC5CC5C3)c2F)CC4)CCN1C` (stereo partly drawn) [Example 95, 2-(3-azabicyclo[3.1.0]hexan-3-yl)-3-fluoro-4-(8-((R)-3-(methoxymethyl)-4-methylpiperazin-1-yl)-7,10-dimethyl-5-oxo-1,3,4,5-tetrahydro-2H-chromeno[3,4-c]pyridine-3-carbonyl)-N-(pyrrolidin-1-ylsulfonyl)benzamide], for which, in test [1], the IC50 lay in the range of 100 to 1000 nM and the “MTHFD1/MTHFD2 IC50 ratio” value is reported as “F (<3)”. The IC50 in test [2] lay within 100 to 1000 nM.

For the compound `COC[C@H]1CN(c2cc(C)c3c4c(c(=O)oc3c2C)CN(C(=O)c2ccc(C(=O)NS(=O)(=O)N(C)C)c(OC3CCCC3)c2F)CC4)CCN1C` [Example 43, (R)-2-(cyclopentyloxy)-N-(N,N-dimethylsulfamoyl)-3-fluoro-4-(8-(3-(methoxymethyl)-4-methylpiperazin-1-yl)-7,10-dimethyl-5-oxo-1,3,4,5-tetrahydro-2H-chromeno[3,4-c]pyridine-3-carbonyl)benzamide], in test [1], the half-maximal inhibitory concentration (IC50) was 1 to 10 nM and the “MTHFD1/MTHFD2 IC50 ratio” value is given as “F (<3)”. For the same compound, the IC50 in test [2] was 1 to 10 nM.

Regarding `COC[C@H]1CN(c2cc(Cl)c3c4c(c(=O)oc3c2C)CN(C(=O)c2cc(N(C)C)c(C(=O)NS(=O)(=O)N(C)C3CC3)cc2F)CC4)CCN1C` [Example 323, (R)-4-(10-chloro-8-(3-(methoxymethyl)-4-methylpiperazin-1-yl)-7-methyl-5-oxo-1,3,4,5-tetrahydro-2H-chromeno[3,4-c]pyridine-3-carbonyl)-N-(N-cyclopropyl-N-methylsulfamoyl)-2-(dimethylamino)-5-fluorobenzamide], the half-inhibitory concentration (IC50) in test [1] is 1 to 10 nM; in test [2] it was 100 to 1000 nM. Also, in test [1], the “MTHFD1/MTHFD2 IC50 ratio” value is recorded as “J (>30)”.

In the case of `COC[C@H]1CN(c2ccc3c4c(c(=O)oc3c2C)CN(C(=O)c2ccc(C(=O)NS(=O)(=O)C3(C)CC3)c(OC3CCCC3)c2F)CC4)CCN1C` [Example 9, (R)-2-(cyclopentyloxy)-3-fluoro-4-(8-(3-(methoxymethyl)-4-methylpiperazin-1-yl)-7-methyl-5-oxo-1,3,4,5-tetrahydro-2H-chromeno[3,4-c]pyridine-3-carbonyl)-N-((1-methylcyclopropyl)sulfonyl)benzamide], in test [1], the IC50 fell in the range of 10 to 100 nM and the “MTHFD1/MTHFD2 IC50 ratio” value is recorded as “F (<3)”. For the same compound, the IC50 in test [2] is 10 to 100 nM.

As usually defined, the IC50 is the concentration that gives 50% inhibition.
